Experimental data published in US7208502B2, “Methods of treating conditions associated with an Edg-3 receptor” (Maniv Energy Capital, priority 2002, dated 2007).

Legend:
Conditions in all cases: 10 μM; significance criteria ≧50% of max stimulation or inhibition
[1] = system: Adrenergic α1, non-selective; test: Radioligand binding assay, 3H Prazosin; set-up: species or system Wistar Rat
Description: (§1) In order to test the selectivity of compounds, various enzyme assays as well as radioligand binding assays were performed using numerous non-Edg receptor targets as listed below.
(§2) A radioligand binding assay was performed using adrenergic α1 according to the method of Greengrass and Bremner 1979, Eur. J. Pharmacol. 55:323–326. A radioligand binding assay was performed using adrenergic α2 according to the method of Boyajian and Leslie, 1987, J. Pharmacol. Exp. Ther. 241:1092–1098. A radioligand binding assay was performed using adrenergic β according to the method of Feve et al., 1994, Proc. Natl. Acad. Sci. USA 91:5677–5681. A radioligand binding assay was performed using angiotensin AT2 according to the method of Whitebread et al., 1991, Biochem. Biophys. Res. Comm. 181:1365–1371. A radioligand binding assay was performed using calcium channel Type L, dihydropyridine according to the method of Ehlert et al., 1982, Life Sci. 30:2191–2202. A radioligand binding assay was performed using dopamine D2L according to the method of Bunzo et al., 1988, Nature 336:783–787. A radioligand binding assay was performed using endothelin ETA according to the method of Mihara et al., 1994, J. Phrmacol. Exp Ther. 268:1122–1127. A radioligand binding assay was performed using histamine H1 Central according to the method of Hill et al., 1978, J. Neurochem. 31:997–1004. […]
(§3) Quantitation Method: Radioligand Binding […]

Adrenergic β = test: Radioligand binding assay, 3H Dihydroaplenolol; set-up: species or system Wistar rat
Description: as §1, §2, §3

Endothelin ETA = target: T1, Endothelin ETA (Homo sapiens, UniProt P25101); test: Radioligand binding assay, 125I Endothelin
T1 construct: expressed in transfected cells; host or cells: CHO cells
T1 sequence (P25101 21-427): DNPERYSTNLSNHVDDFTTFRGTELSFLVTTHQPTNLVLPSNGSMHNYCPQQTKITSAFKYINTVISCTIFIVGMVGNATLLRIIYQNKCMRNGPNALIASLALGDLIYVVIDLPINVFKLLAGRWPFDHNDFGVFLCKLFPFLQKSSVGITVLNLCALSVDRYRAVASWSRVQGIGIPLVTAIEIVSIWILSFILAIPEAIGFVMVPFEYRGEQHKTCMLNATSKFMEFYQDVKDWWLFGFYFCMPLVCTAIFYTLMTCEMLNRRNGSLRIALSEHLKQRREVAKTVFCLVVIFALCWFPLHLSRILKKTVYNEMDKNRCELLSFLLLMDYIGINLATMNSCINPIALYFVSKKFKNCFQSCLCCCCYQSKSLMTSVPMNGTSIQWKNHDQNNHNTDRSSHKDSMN
Description: as §1, §2, §3

Cc1c(-c2ccccc2)nc2ccccc2c1C(=O)NCc1ccc(F)cc1 [Compound 101, 3-methyl-2-phenyl-quinoline-4-carboxylic acid 4-fluoro-benzylamide]
no activity: activity in standard binding assay, Adrenergic α1 [1] | activity in standard binding assay, Adrenergic β (Adrenergic β) | activity in standard binding assay, Endothelin ETA (Endothelin ETA)
